The record followed here is US5385917A, “Carboxylic acid derivatives” (Mitsubishi Kasei Corporation, priority 1992, dated 1995).

This experiment deals with T1, Human steroid 5α-reductase (Homo sapiens, UniProt P31213).
T1 construct: The suspension was used as the source of 5α-reductase; from tissue; host or cells: frozen human prostate, whole homogenate in 0.1 M phosphate buffer pH 5.5
T1 sequence (P31213 1-254): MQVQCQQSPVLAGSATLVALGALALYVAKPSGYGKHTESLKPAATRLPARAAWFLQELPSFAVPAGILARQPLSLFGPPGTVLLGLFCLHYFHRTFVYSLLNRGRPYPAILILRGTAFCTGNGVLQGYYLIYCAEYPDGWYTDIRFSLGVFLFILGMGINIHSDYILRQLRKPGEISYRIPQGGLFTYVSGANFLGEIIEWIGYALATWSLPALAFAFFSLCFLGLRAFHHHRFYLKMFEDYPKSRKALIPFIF
The experiment can be described thus: Human steroid 5α-reductase inhibiting effect using human prostatic tissue. Format: biochemical. Particulars: human prostate homogenate, pH 5.5, 50 nM [3H]testosterone, NADPH, 37° C., 10 min; Table 5. From the text: Human steroid 5α-reductase inhibiting effect was examined on the compounds of the present invention using human prostatic tissue.
Frozen human prostate was thawed on ice and minced into small pieces (~5mm^3). The minced tissue was homogenized with a Polytron homogenizer (Kinematica, Switzerland) in 40 vol. of 0.1M phosphate buffer at pH 5.5. The suspension was used as the source of 5α-reductase.
For this test, DMSO solutions containing various amount of the inhibitor were employed.
Each reaction solution was incubated at 37° C. for 10 minutes and ethyl acetate (2 ml) chilled with ice was added for stopping the reaction. The organic layer was transferred to another test tube and evaporated to dryness under nitrogen. Each 50 μg of non radioactive testosterone, DHT, estradiol, androstenedione and androstandiol was added to the residue, and the wall of each test tube was washed with ethyl acetate (0.1 ml). The content of the tube was evaporated again and the residue was dissolved in chloroform (50 μl) and then applied to Whatman LK60DF silica plates (Whatman, N.J.), developing in chloroform:methanol (50:1). The bands of the substrates and products were identified by fluorescence (254 nm) and iodine, and the relevant silica gel was collected by scraping, mixed with toluene based liquid sincilator, and the radioactivity was counted. The radioactivities of DHT and androstandiol were combined for the calculation of 5α-reductase activity. […] The radioactivity for the control group was postulated as 100%.
IC50 were calculated from the data obtained from the above experiments.

Regarding `CC12CCC(C(=O)O)=CC1=CCCC2NC(=O)c1cccc(Oc2ccccc2)c1` (centres unmarked) [Example 2, 5-(3'-phenoxybenzoylamino)-10-methyl-Δ^1(2),8(9) -octalin-2-carboxylic acid], the IC50 amounted to 830 nM. The result for `CC12CCC(C(=O)O)=CC1=CCCC2NC(=O)c1cccc(Oc2ccc3c(c2)CCCC3)c1` (centres unmarked) [Example 14, 5-[3'-(5",6",7",8"-tetrahydro-2"-naphtoxy)benzoylamino]-10-methyl-Δ^1(2),8(9) -octalin-2-carboxylic acid] reads 440 nM. The result for `C[C@@]12CCC(C(=O)O)=CC1=CCC[C@H]2NC(=O)c1cccc(OC2CCCCCC2)c1` [Example 45, (5R,10R)-5-(3'-cycloheptyloxybenzoylamino)-10-methyl-Δ^1(2),8(9)-octalin-2-carboxylic acid] reads 610 nM. `CC12CCC(C(=O)O)=CC1=CCCC2NC(=O)c1cccc(OCC2CCCCC2)c1` (centres unmarked) [Example 31, 5-(3'-cyclohexylmethoxybenzoylamino)-10-methyl-Δ^1(2),8(9) -octalin-2-carboxylic acid]: the IC50 was 410 nM.

Compound `Cc1c(OC2CCCCCC2)cccc1C(=O)NC1CCC=C2C=C(C(=O)O)CCC21C` (centres unmarked) [Example 51, 5-(3'-cycloheptyloxy-2-methylbenzoylamino)-10-methyl -Δ^1(2),8(9) -octalin-2-carboxylic acid] returned an IC50 of 910 nM. The result for `CC(C)c1ccc(Oc2cc(Br)cc(C(=O)NC3CCC=C4C=C(C(=O)O)CCC43C)c2)cc1` (centres unmarked) [Example 37, 5-[3-bromo-5-(p-isopropylphenoxy)benzoylamino]-10-methyl-Δ^1(2),8(9) -octalin-2-carboxylic acid] reads 300 nM; that for `Cc1ccc(Oc2cccc(C(=O)NC3CCC=C4C=C(C(=O)O)CCC43C)c2)cc1` (centres unmarked) [Example 7, 5-[3'-(p-tolyloxy)benzoylamino]-10-methyl-Δ^1(2),8(9) -octalin-2-carboxylic acid], 210 nM. Compound `C[C@]12CCC(C(=O)O)=CC1=CCC[C@@H]2NC(=O)c1cccc(OC(C2CC2)C2CC2)c1` [Example 47, (5S,10S)-5-(3'-dicyclopropylmethoxybenzoylamino)-10-methyl-Δ^1(2),8(9) -octalin-2-carboxylic acid] displayed an IC50 of 160 nM. The result for `CC(C)Cc1ccc(Oc2cccc(C(=O)NC3CCC=C4C=C(C(=O)O)CCC43C)c2)cc1` (centres unmarked) [Example 9, 5-{3"-[p-(2'-methylpropyl]phenoxy)benzoylamino}-10-methyl-Δ^1(2),8(9) -octalin-2-carboxylic acid] reads 520 nM; that for `CC12CCC(C(=O)O)=CC1=CCCC2NC(=O)c1cccc(Oc2ccc(C3CCCCC3)cc2)c1` (centres unmarked) [Example 11, 5-[3'-(p-cyclohexylphenoxy)benzoylamino]-10-methyl-Δ^1(2),8(9) -octalin-2-carboxylic acid], 250 nM; that for `CC12CCC(C(=O)O)=CC1=CCCC2NC(=O)c1ccc2c(c1)OC1(CCCCC1)O2` (centres unmarked) [Example 42, 5-(3',4'-cyclohexylidenedioxybenzoylamino)-10-methyl-Δ^1(2),8(9)-octalin-2-carboxylic acid], 770 nM.

`CC12CCC(C(=O)O)=CC1=CCCC2NC(=O)c1cccc(OCc2ccccc2)c1` (centres unmarked) [Example 15, 5-(3'-benzyloxy-benzoylamino)-10-methyl-Δ^1(2),8(9) -octalin-2-carboxylic acid] had an IC50 of 4210 nM.

The compound `Cc1cc(C)cc(Oc2cccc(C(=O)NC3CCC=C4C=C(C(=O)O)CCC43C)c2)c1` (centres unmarked) [Example 13, 5-[3'-(3,5-dimethylphenoxy)benzoylamino]-10-methyl-Δ^1(2),8(9) -octalin-2-carboxylic acid] came in with an IC50 of 660 nM.

`CC(C)C(Oc1cccc(C(=O)N[C@H]2CCC=C3C=C(C(=O)O)CC[C@@]32C)c1)C(C)C` [Example 48, (5S,10S)-5-[3'-(2",4"-dimethyl-3"-pentyloxy)benzoylamino]-10-methyl-Δ^1(2),8(9) -octalin-2-carboxylic acid] showed an IC50 of 65 nM. Compound `C[C@]12CCC(C(=O)O)=CC1=CC[C@@H]2NC(=O)c1cccc(OC(C2CC2)C2CC2)c1` [Example 54, (1S,8S)-1-[3'-(dicyclopropylmethyloxy)benzoylamino]-8a-methyl-1,2,6,7-tetrahydroindene-5-carboxylic acid] had an IC50 of 160 nM. The same measure for `COc1ccc(C(=O)NC2CCC=C3C=C(C(=O)O)CCC32C)cc1OC1CCCCCC1` (centres unmarked) [Example 39, 5-(3'-cycloheptyloxy-4'-methoxybenzoylamino)-10-methyl-Δ^1(2),8(9) -octalin-2-carboxylic acid]: 390 nM; for `CC12CCC(C(=O)O)=CC1=CCCC2NC(=O)c1cccc(CC2CCCCC2)c1` (centres unmarked) [Example 35, 5-(3'-cyclohexylmethylbenzoylamino)-10-methyl-Δ^1(2),8(9) -octalin-2-carboxylic acid]: 160 nM.

The compound `CC12CCC(C(=O)O)=CC1=CCCC2NC(=O)c1ccc(Oc2ccccc2)cc1` (centres unmarked) [Example 1] gave an IC50 of 3300 nM.

As to `CC(C)c1ccc(Oc2cccc(C(=O)NC3CCC=C4C=C(C(=O)O)CCC43C)c2)cc1` (centres unmarked) [Example 4, 5-[3'-(p-isopropylphenoxy)benzoylamino]-10-methyl-Δ^1(2),8(9) -octalin-2-carboxylic acid], the half-maximal inhibitory concentration (IC50) was determined as 810 nM. The result for `CC(C)(C)c1cc(C(=O)NC2CCC=C3C=C(C(=O)O)CCC32C)cc(C(C)(C)C)c1` (centres unmarked) [Example 43, 5-(3',5'-di-t-butylbenzoylamino)-10-methyl-Δ^1(2),8(9) -octalin-2-carboxylic acid] reads 230 nM; that for `C[C@]12CCC(C(=O)O)=CC1=CCC[C@@H]2NC(=O)c1cccc(OC2CCCCCC2)c1` [Example 46, (5S,10S)-5-(3'-cycloheptyloxybenzoylamino)-10-methyl-Δ^1(2),8(9)-octalin-2-carboxylic acid], 300 nM. `CC12CCC(C(=O)O)=CC1=CCCC2NC(=O)c1cccc(OC2CCCCCCC2)c1` (centres unmarked) [Example 20, 5-(3'-cyclooctyloxybenzoylamino)-10-methyl-Δ^1(2),8(9) -octalin-2-carboxylic acid] returned an IC50 of 270 nM. Take `CC(C)c1cccc(Oc2cccc(C(=O)NC3CCC=C4C=C(C(=O)O)CCC43C)c2)c1` (centres unmarked) [Example 5, 5-[3'-(m-isopropylphenoxy)benzoylamino]-10-methyl-Δ^1(2),8(9) -octalin-2-carboxylic acid]: the IC50 stood at 460 nM. On to `CC12CCC(C(=O)O)=CC1=CCCC2NC(=O)c1cccc(OC2CCCC2)c1` (centres unmarked) [Example 17, 5-(3'-cyclopentyloxybenzoylamino)-10-methyl-Δ^1(2),8(9) -octalin-2-carboxylic acid], for which the IC50 amounted to 180 nM. The result for `CC12CCC(C(=O)O)=CC1=CCCC2NC(=O)c1cccc(O[C@H]2CC[C@H](C(C)(C)C)CC2)c1` (stereo partly drawn) [Example 23, 5-[3-(4-trans-t-butylcyclohexyloxy)benzoylamino]-10-methyl-Δ^1(2),8(9) -octalin-2-carboxylic acid] reads 300 nM. The same measure for `CC(C)C1CCC(Oc2cccc(C(=O)NC3CCC=C4C=C(C(=O)O)CCC43C)c2)CC1` (centres unmarked) [Example 22, 5-[3-(4-isopropylcyclohexyloxy)benzoylamino]-10-methyl-Δ^1(2),8(9) -octalin-2-carboxylic acid]: 520 nM.
